Experimental data as given in the supplement of paper PMC13380429.

Columns and labels:
[1] = tested on: A549-ACE2 infected with SARS-CoV-2; test: morphology score (similarity to uninfected cells); higher = more like uninfected cells; details: 24 h
[2] = tested on: A549-ACE2; test: drug-induced phospholipidosis relative to tamoxifen; higher = more phospholipidosis
[3] = tested on: Vero E6; test: relative viability EC50 (midpoint between 100% and the lowest measured viability); higher = less toxic; details: 72 h
[4] = tested on: U2OS; test: as above; details: 72 h
[5] = tested on: HepG2; test: as above; details: 72 h
[6] = tested on: Calu-3; test: as above; details: 72 h
[7] = tested on: Caco-2; test: as above; details: 72 h
[8] = tested on: A549-ACE2 infected with SARS-CoV-2; test: cell count relative to DMSO; higher = less toxic; details: 24 h
[9] = tested on: A549-ACE2 infected with SARS-CoV-2; test: SARS-CoV-2 infection rate relative to DMSO; higher = more infection; details: 24 h
[10] = tested on: Vero E6; test: drug sensitivity score (DSS) for viability; higher = more toxic; extreme values may be limits of the assay; details: 72 h
[11] = tested on: U2OS; test: as above; details: 72 h
[12] = tested on: HepG2; test: as above; details: 72 h
[13] = tested on: Calu-3; test: as above; details: 72 h
[14] = tested on: Caco-2; test: as above; details: 72 h
[15] = tested on: Vero E6; test: cell viability relative to DMSO; higher = less toxic; details: 72 h
[16] = tested on: U2OS; test: as above; details: 72 h
[17] = tested on: HepG2; test: as above; details: 72 h
[18] = tested on: Calu-3; test: as above; details: 72 h
[19] = tested on: Caco-2; test: as above; details: 72 h
[20] = tested on: A549-ACE2; test: phospholipidosis EC50; higher = less potent phospholipidosis inducer; details: 24 h

C/C(=N\NC(=S)N1CCC1)c1ccccn1
Details	SARS-CoV-2 infection rate, [9] [%]	cell count, [8] [%]	cell viability, [15] [%]	cell viability, [16] [%]	cell viability, [17] [%]	cell viability, [18] [%]	cell viability, [19] [%]	morphology score, [1]
1 nM	–	–	102	101	104	97.3	91.8	–
10 nM	–	–	96.6	101	74.3	102	14.9	–
0.1 µM	104	96	–	–	–	–	–	-0.24
100 nM	–	–	70.5	59	5.6	56.8	17.9	–
0.3 µM	104	95	–	–	–	–	–	-0.09
1 µM	104	89	–	–	–	–	–	-0.19
1000 nM	–	–	31.3	28.1	11.4	38.4	39.6	–
3 µM	68	88	–	–	–	–	–	0.17
10000 nM	–	–	14.5	15.4	21	25.4	34	–

drug-induced phospholipidosis [%], [2]
Details	0.3 µM	0.833333 µM	3.33333 µM	6.66667 µM	10 µM	30 µM
24 h	11.7	5.99	0.42	-4.61	-12.7	-11.9
48 h	–	–	–	–	-6.55	–

Details	drug sensitivity score	relative viability EC50 [nM]
[3]	–	206
[4]	–	122
[5]	–	14.8
[6]	–	90.7
[7]	–	2.4
[10]	16.4	–
[11]	18.8	–
[12]	32.8	–
[13]	18	–
[14]	38.4	–

CCC[C@@H]1CC2=CC(=O)CC[C@]2(C)[C@H]2CC[C@@]3(C)[C@@H](CC[C@@]3(O)CCC(=O)O)[C@H]12
Details	SARS-CoV-2 infection rate, [9] [%]	cell count, [8] [%]	cell viability, [15] [%]	cell viability, [16] [%]	cell viability, [17] [%]	cell viability, [18] [%]	cell viability, [19] [%]	morphology score, [1]
1 nM	–	–	94.6	98.9	87.5	101	87.4	–
10 nM	–	–	91	98.3	105	92.5	98.4	–
100 nM	–	–	97.6	97.2	93.3	100	95.7	–
0.3 µM	98	95	–	–	–	–	–	0.12
1000 nM	–	–	89.1	100	92	98.5	94.9	–
3 µM	105	103	–	–	–	–	–	-0.07
10 µM	97	100	–	–	–	–	–	0.07
10000 nM	–	–	95.4	93.8	101	102	89.8	–
30 µM	96	99	–	–	–	–	–	0.1

drug-induced phospholipidosis [%], [2]
Details	0.3 µM	0.833333 µM	3.33333 µM	6.66667 µM	10 µM	30 µM
24 h	2.3	-0.41	-0.2	0.45	2.66	5.67
48 h	3.88	0.27	-1.07	1.45	3.16	6.48
72 h	3.28	-0.65	-0.652	0.565	3.59	9.53

Details	drug sensitivity score	relative viability EC50 [nM]
[3]	–	> 10000
[4]	–	> 10000
[5]	–	> 10000
[6]	–	> 10000
[7]	–	> 10000
[10]	0	–
[11]	0	–
[12]	0	–
[13]	0	–
[14]	0	–

CCN1CCN(c2ccc(C(C)(C)NC(=O)c3cc4[nH]c5ccccc5c(=O)c4cc3F)cn2)CC1
Details	SARS-CoV-2 infection rate, [9] [%]	cell count, [8] [%]	cell viability, [15] [%]	cell viability, [16] [%]	cell viability, [17] [%]	cell viability, [18] [%]	cell viability, [19] [%]	morphology score, [1]
1 nM	–	–	109	99.3	95.7	96.4	102	–
10 nM	–	–	102	96.5	104	87.8	105	–
100 nM	–	–	102	94.2	103	92.7	107	–
0.3 µM	92	102	–	–	–	–	–	0.33
1000 nM	–	–	97.2	105	77	76.7	116	–
3 µM	34	93	–	–	–	–	–	0.74
10 µM	11	97	–	–	–	–	–	0.74
10000 nM	–	–	92	25.5	52.9	43.3	86.5	–
30 µM	25	72	–	–	–	–	–	0.53

drug-induced phospholipidosis [%], [2]
Details	0.3 µM	0.833333 µM	3.33333 µM	6.66667 µM	10 µM	30 µM
24 h	6.26	-2.09	-3.71	11.8	31.3	80.5
48 h	4.42	0.5	–	–	–	67.5
72 h	12.4	4.2	–	–	–	–

Details	drug sensitivity score	phospholipidosis EC50 [nM]	relative viability EC50 [nM]
[3]	–	–	> 10000
[4]	–	–	3530
[6]	–	–	1180
[7]	–	–	> 10000
[10]	0	–	–
[11]	3.7	–	–
[12]	5.4	–	–
[13]	5.6	–	–
[14]	0	–	–
[20]	–	11600	–
